From US20110065734A1, “NOVEL BIFUNCTIONAL COMPOUNDS WHICH INHIBIT PROTEIN KINASES AND HISTONE DEACETYLASES” (4SC AG, priority 2007, published 2011)
Structures can show the parent of a compound that is named as a salt. Where two headings read alike, the source gives them in different places.

Columns and labels:
[1] = target: T1, HDAC11 (Homo sapiens, UniProt Q96DB2); settings: Kalita et al. 2005; one range for HDAC1, 2, 3 and 11; cited from earlier work
T1 sequence (Q96DB2 1-347): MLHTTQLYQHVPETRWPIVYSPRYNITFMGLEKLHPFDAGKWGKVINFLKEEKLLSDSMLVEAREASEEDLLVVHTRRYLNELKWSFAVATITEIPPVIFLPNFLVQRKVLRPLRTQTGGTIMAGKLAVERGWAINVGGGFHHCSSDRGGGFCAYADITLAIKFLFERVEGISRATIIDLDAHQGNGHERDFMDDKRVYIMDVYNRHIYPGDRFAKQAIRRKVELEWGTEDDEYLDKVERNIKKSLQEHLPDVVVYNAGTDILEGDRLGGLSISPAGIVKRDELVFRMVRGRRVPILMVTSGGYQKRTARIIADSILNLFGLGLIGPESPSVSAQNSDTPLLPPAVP

[2] = system: HDACs 4 to 8; settings: read-out: HDACs 4 to 8 IC50; Kalita et al. 2005; cited from earlier work
[3] = system: HeLa cervical carcinoma cell line; experiment: Cellular cytotoxicity assay (Alamar Blue), HeLa; assay type: cell-based; settings: Homo sapiens, 72 h
[4] = target: T2, Protein kinase A (PKA) (Homo sapiens, UniProt P17612); experiment: Biochemical flash-plate based kinase assay, PKA
T2 construct: purchased InvitroGen/Panvera, Carlsbad/USA
From the text: (§1) Active kinase proteins were either obtained from commercial suppliers (Abl, PDGF-Rβ ProQinase, Freiburg/Germany; AblT^315I: Millipore/Upstate, Billerica/USA; PKA: InvitroGen/Panvera, Carlsbad/USA) or prepared in-house (KDR, c-terminal kinase domain AA790-1356, HER2 c-terminal kinase domain, EGFR/HER1 C-terminal kinase domain). As substrates, poly-AGKY for Abl, AblT^315I and PDGF-Rβ (#P-1152 Sigma, Munich/Germany), poly-GluTyr for KDR, HER2 and EGFR/HER1 (#P-0275, Sigma, Munich/Germany) or a PKA substrate peptide for PKA (#12-394, Millipore/Upstate, Billerica/USA) were used. Into each well of a 96-well flashplate (#SMP-200 in the case of Abl, Abl T^315I, PDGF-Rβ, EGFR, HER2 and KDR, #SMP-103 in the case of PKA; Perkin Elmer, Waltham/USA) kinase protein was diluted into kinase assay buffer (50 mM HEPES pH 7.5, 3 mM MgCl2, 3 mM MnCl2, 1 mM DTT, 3 μM sodium orthovanadate, 5 μg/ml PEG 8000) containing the appropriate substrate (final volume 89 μl). DMSO vehicle or compounds are added as 1 μl/well prior to the initiation of the kinase reaction by 10 μl 1 mM [^33P]-γATP (4×10^5 cpm). Reactions were allowed to proceed for a time predetermined to be linear on a time versus phosphorylation plot (30 min for PKA, otherwise 80 min) and terminated with the addition of an equal volume of phosphoric acid (2% H3PO4 for 5 minutes). Plates were washed three times with 0.9% w/v NaCl and quantitated by liquid scintillation counting.

[5] = system: histone H3 hyperacetylation in HeLa cervical carcinoma cells; experiment: Cellular histone H3 hyperacetylation assay; assay type: cell-based; settings: Homo sapiens, 24 h, only a range over the listed compounds is given, read-out: Induction of histone H3 hyperacetylation in HeLa cervical carcinoma cells EC50
From the text: To assess the cellular efficacy of a histone deacetylase inhibitor in vitro, an assay was set up in black clear-bottom 96-well plates and optimized for use on the Cellomics “ArrayScan II” platform for a quantitative calculation of histone acetylation. The protocol uses a polyclonal rabbit antibody, specifically binding to acetylated lysine 1-20 of human histone H3 on fixed cells with an Alexa Fluor 488 labeled goat anti rabbit-IgG used for counterstaining (Beckers et al. Int J. Cancer 121, 1138, 2007).
5×10^3 HeLa cervical carcinoma cells/well (ATCC. CCL-2) in 200 μl Dulbecco rs modified Eagle's medium (DMEM) containing 10% fetal calf serum are seeded at day 1 in Packard view plates and incubated for 24 h under standard cell culture conditions. On day 2, 1 μl test compound (200× final concentration) is added and incubation continued for further 24 h. On day 3, the culture medium is discarded and attached cells fixed for 15 min at room temperature by addition of 100 μl fixation buffer (3.7% v:v formaldehyde in phosphate buffered saline/PBS). After discarding the fixation buffer and one wash with blocking solution (1% BSA, 0.3% Tween 20 in PBS), cells are permeabilized at room temperature by addition of 100 μl/well permeabilization buffer (30.8 mM NaCl, 0.54 mM Na2HPO4, 0.31 mM KH2PO4, 0.1% v:v Triton X-100) for 15 min at room temperature. After discarding the permeabilization buffer and washing twice with 100 μl/well blocking solution at room temperature, the 1st antibody (anti-K^1-20 histone H3 antibody, Calbiochem No. 382158) in blocking solution (50 μl/well) is added. After incubation for 1 h at room temperature, the wells are washed twice at room temperature with 100 μl/well blocking solution before addition of the 2nd antibody (goat-anti-rabbit Alexa Fluor 488; MoBiTec No. A-11008) in blocking solution (50 μl/well). After further incubation for 1 h at room temperature, wells are washed twice with 100 μl/well blocking solution at room temperature. Finally, 100 μl/well PBS are added and image analysis performed on the Cellomics “ArrayScan II” platform. For EC50 determination, the percentage of positive cells showing nuclear fluorescence is determined and EC50 calculation done from concentration-effect curves by means of non-linear regression. For calibration, a positive (reference HDAC inhibitors like SAHA or NVP LBH-589) and a negative control were included.

[6] = target: T3, recombinant HDAC1 isolated from HEK293 cells with heterologous HDAC1 expression (Homo sapiens, UniProt Q13547); experiment: Fluorimetric rHDAC1 activity assay; assay type: biochemical; settings: only a range of IC50 over the compounds given; read-out: rHDAC1 inhibitory activity IC50
T3 construct: made in house

[7] = target: T4, HER2 (Homo sapiens, UniProt P04626); experiment: Biochemical flash-plate based kinase assay, HER2; settings: only a range over the listed compounds is given; read-out: HER2 inhibition IC50
T4 construct: HER2 c-terminal kinase domain; made in house
From the text: as §1, with “Reactions were allowed to proceed for a time predetermined to be linear on a time versus phosphorylation plot (30 min for PKA, otherwise 80 min) and terminated with the addition of an equal volume of phosphoric acid (2% H3PO4 for 5 minutes).” left out

[8] = system: Cal27 head and neck cancer cell line; experiment: Cellular cytotoxicity assay (Alamar Blue), Cal27; assay type: cell-based; settings: Homo sapiens, CAL-27; 72 h; only a range over the listed compounds is given; read-out: Cytotoxicity towards Cal27 cell line IC50
Procedure: The anti-proliferative activity of the chimeric HDAC and protein kinase inhibitory chimeric compounds of the present invention was evaluated using HeLa cervical carcinoma, A549 NSCLC, SKOV3 ovarian carcinoma, Cal27 head and neck cancer, K562 chronic myeloid leukemia (CML) and EOL1 acute hypereosinophilic myeloid leukemia, cell lines. For quantification of cellular proliferation/living cells the Alamar Blue (Resazurin) cell viability assay was applied (O'Brien et al. Eur Biochem. 267, 5421-5426, 2000). In this assay Resazurin is reduced to the fluorescent resorufin by cellular dehydrogenase activity, correlating with viable, proliferating cells. The examples were dissolved as 20 mM solutions in dimethylsulfoxide (DMSO) and subsequently diluted in semi-logarithmic steps. Cell lines were seeded at respective density into 96 well flat bottom plates in a volume of 200 μl per well. 24 h after seeding 1 μl each of the compound dilutions were added into each well of the 96 well plate. Each compound dilution was tested as quadruplicates. Wells containing untreated control cells were filled with […] DMEM medium containing 0.5% v:v DMSO. The cells were then incubated with the substances for 72 h at 37° C. in a humidified atmosphere containing 5% carbon dioxide. To determine the viability of the cells, 20 μl of an Resazurin solution (Sigma; 90 mg/l) were added. After 4 h incubation at 37° C. the fluorescence was measured at an extinction of 544 nm and an emission of 590 nm. For the calculation of the cell viability the emission value from untreated cells was set as 100% viability and the emission rates of treated cells were set in relation to the values of untreated cells. Viabilities were expressed as % values. The corresponding IC50 values of the compounds for cytotoxic activity are determined from the concentration-effect curves by means of non-linear regression.

[9] = system: A549 NSCLC cell line; experiment: Cellular cytotoxicity assay (Alamar Blue), A549; assay type: cell-based; settings: Homo sapiens, A549; 72 h; only a range over the listed compounds is given; read-out: Cytotoxicity towards A549 NSCLC cell line IC50
[10] = system: cellular HDAC activity in HeLa cells; experiment: Quantification of cellular HDAC activity in HeLa cells; assay type: cell-based, human; settings: 4 h compound incubation; for lists of compounds only a range is printed; read-out: Inhibition of cellular HDAC activity in HeLa cells IC50
Procedure: To assess the cellular potency of histone deacetylase inhibitors, an assay recently described was applied (Ciossek et al. Anal Biochem e-pub 2007). 5×10^3 HeLa cervical carcinoma cells/well (ATCC CCL-2) were cultivated in 200 μl/well DMEM (containing 10% FCS) in cell culture microliter plates (white, 96 well flat bottom plates suitable for fluorimetric analysis; Costar Art. No. 3917). Cells were cultivated for 24 h under standard cell culture conditions at 37° C. and 5% CO2 to allow cell attachment and proliferation. The compounds of the present invention were added at different concentrations (dilutions done in DMSO) and incubation continued for 4 h at 37° C. under cell culture conditions (each concentration was tested in quadruplicate). […] After discarding the culture medium, 100 μl/well substrate solution (200 μM Boc-K(Ac)-AMC in DMEM (containing 10% FCS), stock solution diluted 1:250) were added and incubation continued at 37° C. under cell culture conditions for further 3 h. […] After incubation for 5 min at 37° C., cells were lysed by addition of 100 μl/well lysis buffer (50 mM TRIS pH 8, 137 mM NaCl, 2.7 mM KCl, 1 mM MgCl2, 1 vol % NP-40) and further incubation for 20 min at 37° C. Finally, the amount of AMC was quantified using the Wallac Victor device (extinction λ=355 nm, emission at λ=460 inn).

[11] = system: SKOV3 ovarian carcinoma cell line; experiment: Cellular cytotoxicity assay (Alamar Blue), SKOV3; assay type: cell-based; settings: Homo sapiens, SK-OV-3; 72 h; only a range over the listed compounds is given; read-out: Cytotoxicity towards SKOV3 cell line IC50

T3 sequence (Q13547 whole entry): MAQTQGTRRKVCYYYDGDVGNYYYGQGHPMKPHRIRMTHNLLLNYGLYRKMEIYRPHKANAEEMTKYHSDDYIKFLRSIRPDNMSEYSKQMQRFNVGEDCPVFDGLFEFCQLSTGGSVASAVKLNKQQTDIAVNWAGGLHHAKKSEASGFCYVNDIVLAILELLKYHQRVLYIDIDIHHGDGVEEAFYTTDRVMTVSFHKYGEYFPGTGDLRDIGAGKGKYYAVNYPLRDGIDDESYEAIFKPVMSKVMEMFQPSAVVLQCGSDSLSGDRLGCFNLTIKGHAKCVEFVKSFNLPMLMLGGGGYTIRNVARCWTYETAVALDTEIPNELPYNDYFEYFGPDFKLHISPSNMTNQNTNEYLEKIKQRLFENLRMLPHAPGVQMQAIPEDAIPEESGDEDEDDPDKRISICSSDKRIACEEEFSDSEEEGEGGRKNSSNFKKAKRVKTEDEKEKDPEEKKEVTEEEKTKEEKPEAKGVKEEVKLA
T4 sequence (P04626 720-987 limits assumed): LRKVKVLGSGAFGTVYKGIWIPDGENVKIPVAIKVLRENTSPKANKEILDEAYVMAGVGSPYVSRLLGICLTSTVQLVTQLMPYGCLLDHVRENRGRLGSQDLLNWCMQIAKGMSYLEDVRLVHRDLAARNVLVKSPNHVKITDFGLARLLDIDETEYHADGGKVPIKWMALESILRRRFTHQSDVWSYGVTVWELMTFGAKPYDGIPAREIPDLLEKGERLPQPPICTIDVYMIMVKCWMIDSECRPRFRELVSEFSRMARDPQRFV

Row | IC50 [10] | SMILES | IC50 [1] | IC50 [2] | IC50 ([3]; read-out: Cytotoxicity towards HeLa cervical cell line IC50 (M)) | IC50 [4] | EC50 [5] | IC50 [6] | IC50 [7] | IC50 ([3]; only a range over the listed compounds is given, read-out: Cytotoxicity towards HeLa cervical cell line IC50) | IC50 [8] | IC50 [9] | IC50 [11]
1 | – | Nc1ccccc1NC(=O)c1ccc(CNc2nccc(-c3cccnc3)n2)cc1 [MGCD0103] | 100 to 2000 nM | > 20000 nM | – | – | – | – | – | – | – | – | –
2 | – | O=C(NO)c1ccc(-c2ccc3ncnc(Nc4ccc(OCc5cccc(F)c5)c(Cl)c4)c3c2)o1 [[6], 5-{4-[3-Chloro-4-(3-fluorobenzyloxy)phenylamino]-quinazolin-6-yl}furan-2-carboxylic acid hydroxyamide hydrochloride monohydrate] | – | – | 9.1e-07 to 9.4e-06 M | 85000 nM | ≥ 3650 nM | ≥ 35.3 nM | 2 to 740 nM | – | – | – | –
3 | 430 nM | O=C(/C=C/c1cccc(-c2ccc3ncnc(Nc4ccc(OCc5cccc(F)c5)c(Cl)c4)c3c2)c1)NO [[9], E-3-(3-(4-(3-chloro-4-(3-fluorobenzyloxy)phenylamino)quinazolin-6-yl)phenyl)-N-hydroxy-acrylamide] | – | – | – | – | ≥ 3650 nM | ≥ 35.3 nM | – | 9.1e-07 to 9.4e-06 M | ≥ 280 nM | ≥ 1100 nM | ≥ 1000 nM
